Converted amounts (≈) assume the structure as drawn.
Key:
Type in all cases: functional
[1] = test system: Mycobacterium tuberculosis; test: Antitubercular activity against rifampin, isoniazid, amikacin and ofloxacin-resistant Mycobacterium tuberculosis assessed as inhibition of bacterial growth after 4 weeks by two-fold dilution technique; conditions: 672 h
[2] = test system: Mycobacterium tuberculosis; test: Antitubercular activity against rifampin and isoniazid-resistant Mycobacterium tuberculosis assessed as inhibition of bacterial growth after 4 weeks by two-fold dilution technique; conditions: 672 h
[3] = test system: Mycobacterium tuberculosis; test: Antitubercular activity against isoniazid-resistant Mycobacterium tuberculosis infected in human THP-1 cells assessed as inhibition of intracellular activity at 10 mg/L after 4 days; conditions: THP-1, 96 h
[4] = test system: Mycobacterium tuberculosis; test: Antitubercular activity against rifampin, isoniazid, amikacin and ofloxacin-resistant Mycobacterium tuberculosis infected in human THP-1 cells assessed as inhibition of intracellular activity at 10 mg/L after 4 days; conditions: THP-1, 96 h
[5] = test system: Mycobacterium tuberculosis; test: Antitubercular activity against rifampin, isoniazid and ethambutol-resistant Mycobacterium tuberculosis infected in human THP-1 cells assessed as inhibition of intracellular activity at 20 mg/L after 4 days; conditions: THP-1, 96 h
[6] = test system: Mycobacterium tuberculosis; test: Antitubercular activity against rifampin, isoniazid, kanamycin and ofloxacin-resistant Mycobacterium tuberculosis infected in human THP-1 cells assessed as inhibition of intracellular activity at 10 mg/L after 4 days; conditions: THP-1, 96 h
[7] = test system: Mycobacterium tuberculosis; test: Antitubercular activity against rifampin, isoniazid, amikacin and ofloxacin-resistant Mycobacterium tuberculosis infected in human THP-1 cells assessed as inhibition of intracellular activity at 20 mg/L after 4 days; conditions: THP-1, 96 h
[8] = test system: Mycobacterium tuberculosis; test: Antitubercular activity against rifampin, isoniazid and ethambutol-resistant Mycobacterium tuberculosis assessed as inhibition of bacterial growth after 4 weeks by two-fold dilution technique; conditions: 672 h
[9] = test system: Mycobacterium tuberculosis; test: Antitubercular activity against rifampin and isoniazid-resistant Mycobacterium tuberculosis infected in human THP-1 cells assessed as inhibition of intracellular activity at 20 mg/L after 4 days; conditions: THP-1, 96 h
[10] = test system: Mycobacterium tuberculosis; test: Antitubercular activity against rifampin, isoniazid, kanamycin and ofloxacin-resistant Mycobacterium tuberculosis assessed as inhibition of bacterial growth after 4 weeks by two-fold dilution technique; conditions: 672 h
[11] = test system: Mycobacterium tuberculosis; test: Antitubercular activity against isoniazid-resistant Mycobacterium tuberculosis infected in human THP-1 cells assessed as inhibition of intracellular activity at 20 mg/L after 4 days; conditions: THP-1, 96 h
[12] = test system: Mycobacterium tuberculosis; test: Antitubercular activity against isoniazid-resistant Mycobacterium tuberculosis assessed as inhibition of bacterial growth after 4 weeks by two-fold dilution technique; conditions: 672 h
[13] = test system: Mycobacterium tuberculosis; test: Antitubercular activity against rifampin, isoniazid and streptomycin-resistant Mycobacterium tuberculosis infected in human THP-1 cells assessed as inhibition of intracellular activity at 10 mg/L after 4 days; conditions: THP-1, 96 h
[14] = test system: Mycobacterium tuberculosis; test: Antitubercular activity against rifampin, isoniazid and ethambutol-resistant Mycobacterium tuberculosis infected in human THP-1 cells assessed as inhibition of intracellular activity at 10 mg/L after 4 days; conditions: THP-1, 96 h
[15] = test system: Mycobacterium tuberculosis; test: Antitubercular activity against rifampin and isoniazid-resistant Mycobacterium tuberculosis infected in human THP-1 cells assessed as inhibition of intracellular activity at 10 mg/L after 4 days; conditions: THP-1, 96 h
[16] = test system: Mycobacterium tuberculosis; test: Antitubercular activity against rifampin, isoniazid and streptomycin-resistant Mycobacterium tuberculosis assessed as inhibition of bacterial growth after 4 weeks by two-fold dilution technique; conditions: 672 h
[17] = test system: Mycobacterium tuberculosis; test: Antitubercular activity against rifampin, isoniazid, kanamycin and ofloxacin-resistant Mycobacterium tuberculosis infected in human THP-1 cells assessed as inhibition of intracellular activity at 20 mg/L after 4 days; conditions: THP-1, 96 h
[18] = test system: Mycobacterium tuberculosis; test: Antitubercular activity against rifampin, isoniazid and streptomycin-resistant Mycobacterium tuberculosis infected in human THP-1 cells assessed as inhibition of intracellular activity at 20 mg/L after 4 days; conditions: THP-1, 96 h

SMILES	MIC [1] [µg/mL]	MIC [2] [µg/mL]	inhibition at 10 µg/mL [3] [%]	inhibition at 10 µg/mL [4] [%]	inhibition at 20 µg/mL [5] [%]	inhibition at 10 µg/mL [6] [%]	inhibition at 20 µg/mL [7] [%]	MIC [8] [µg/mL]	inhibition at 20 µg/mL [9] [%]	MIC [10] [µg/mL]	inhibition at 20 µg/mL [11] [%]	MIC [12] [µg/mL]	inhibition at 10 µg/mL [13] [%]	inhibition at 10 µg/mL [14] [%]	inhibition at 10 µg/mL [15] [%]	MIC [16] [µg/mL]	inhibition at 20 µg/mL [17] [%]	inhibition at 20 µg/mL [18] [%]
O=C(On1c(-c2cccc(F)c2)nc2ccccc2c1=O)c1cccc(F)c1	2.5 (≈ 6.61 µM)	2.5 (≈ 6.61 µM)	25.5	22.8	50.4	26	46.2	2.5 (≈ 6.61 µM)	47.5	2.5 (≈ 6.61 µM)	51.3	2.5 (≈ 6.61 µM)	26.2	24.2	22.6	2.5 (≈ 6.61 µM)	52.2	53.4
CO[C@H]1/C=C/O[C@@]2(C)Oc3c(C)c(O)c4c(O)c(c(/C=N/N5CCN(C)CC5)c(O)c4c3C2=O)NC(=O)/C(C)=C\C=C\[C@H](C)[C@H](O)[C@@H](C)[C@@H](O)[C@@H](C)[C@H](OC(C)=O)[C@@H]1C [RIFAMPIN]	> 8	> 8						> 8		> 8		0.4 (≈ 0.486 µM)				> 8		
COc1cccc(-c2nc3ccccc3c(=O)n2OC(=O)c2cccc(C(F)(F)F)c2)c1	10 (≈ 22.7 µM)	10 (≈ 22.7 µM)						10 (≈ 22.7 µM)		10 (≈ 22.7 µM)		10 (≈ 22.7 µM)				10 (≈ 22.7 µM)		
O=C(On1c(-c2ccccc2)nc2ccccc2c1=O)c1cccc(Cl)c1	5 (≈ 13.3 µM)	5 (≈ 13.3 µM)						5 (≈ 13.3 µM)		5 (≈ 13.3 µM)		5 (≈ 13.3 µM)				5 (≈ 13.3 µM)		
COc1cccc(-c2nc3ccccc3c(=O)n2OC(=O)c2cccc([N+](=O)[O-])c2)c1	5 (≈ 12 µM)	5 (≈ 12 µM)						5 (≈ 12 µM)		5 (≈ 12 µM)		5 (≈ 12 µM)				5 (≈ 12 µM)		
O=C(On1c(-c2ccccc2)nc2ccccc2c1=O)c1cccc([N+](=O)[O-])c1	5 (≈ 12.9 µM)	5 (≈ 12.9 µM)						5 (≈ 12.9 µM)		5 (≈ 12.9 µM)		5 (≈ 12.9 µM)				5 (≈ 12.9 µM)		
NNC(=O)c1ccncc1 [ISONIAZID]	> 8	> 8						> 8		> 8		> 8				> 8		
COC(=O)c1ccccc1S(=O)(=O)NC(=O)Nc1nc(C)cc(C)n1 [SULFOMETURON METHYL]	10 (≈ 27.4 µM)	10 (≈ 27.4 µM)	17.8	15	35	18.8	31.8	10 (≈ 27.4 µM)	34.4	10 (≈ 27.4 µM)	35.6	10 (≈ 27.4 µM)	18.5	17	16.2	10 (≈ 27.4 µM)	36	36.2

Reference: ChEMBL document CHEMBL3425445, “Synthesis, crystal structure and biological evaluation of substituted quinazolinone benzoates as novel antituberculosis agents targeting acetohydroxyacid synthase” (Eur J Med Chem, 2015)
